Test results taken from patent US7125903B1 (Aventis Pharmaceuticals Inc., priority 1999, dated 2006).
Structures can show the parent of a compound that is named as a salt.

molecular target: T1, human D4 receptor (D4.2 sub-type) (Homo sapiens, UniProt P21917, DEL265-296); assay: D4 receptor binding assay (3H-spiperone displacement); details: 1 μM test compound, inhibition of 3H-spiperone binding; read-out: D4 RBA % Inhib. @ 1 μM
T1 construct: expressed in transfected cells
T1 sequence (P21917 with tags, fused parts or gaps DEL265-296): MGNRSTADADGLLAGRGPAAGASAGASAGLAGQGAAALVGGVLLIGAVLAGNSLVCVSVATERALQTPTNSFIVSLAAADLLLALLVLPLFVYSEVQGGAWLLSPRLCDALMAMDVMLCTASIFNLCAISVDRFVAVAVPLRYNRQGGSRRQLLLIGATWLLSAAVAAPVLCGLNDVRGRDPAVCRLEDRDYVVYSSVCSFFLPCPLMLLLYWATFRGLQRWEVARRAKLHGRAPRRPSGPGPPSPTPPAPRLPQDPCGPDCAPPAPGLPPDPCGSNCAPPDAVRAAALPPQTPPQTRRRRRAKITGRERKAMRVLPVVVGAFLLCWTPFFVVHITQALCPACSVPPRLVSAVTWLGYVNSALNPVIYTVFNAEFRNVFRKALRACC
Method: D4 receptor-binding affinities of the compounds were evaluated according to their ability to reduce binding of ^3H-spiperone as compared to the reference compound clozapine. The potency of the test compound to reduce ^3H-spiperone binding directly correlated to its binding affinity for the receptor.
[…] (human embryonic kidney) cells stably transfected with human D4 receptor (D4.2 sub-type) were grown in NUNC cell factories for 5 days (75% confluency) without a media change and removed with versene (approximately 19 mg of cells per cell factory tray). The cells were then centrifuged in a Sorval centrifuge for 10 min, 5000 rpm (GS3 rotor) and the pellets quickly frozen in liquid nitrogen and stored at −80° C. until used in binding assay. When used in the assay, cells were thawed on ice for 20 min and then 10 mL of incubation buffer (50 mM Tris, 1 mM EDTA, 4 mM MgCl2, 5 mM KCl, 1.5 mM CaCl2, 120 mM NaCl, pH 7.4) was added. The cells were then vortexed to resuspend pellet and homogenized with a Kinematica, CH-6010 Kriens-LU, homogenizer for 15 seconds at setting 7. Concentration of receptor protein was determined using the Pierce BCA assay.
The incubation was started by the addition of 100 μl (50 μg protein) membrane homogenate to a solution of 300 μl incubation buffer and 100 μl (0.25 nM final conc.) ^3H-spiperone (90 Ci/mmol, Amersham, diluted in borosilicate glass vial) in 96-well polypropylene plates (1 mL per well). The plates were vortexed and incubated at room temperature for 90 minutes. The binding reaction was stopped by filtering using a Packard Harvester. The samples were filtered under vacuum over glass fibre filter plates (Whatman GF/B) presoaked for 2 hours in 0.3% polyethylenimine (PEI) in 50 mM Tris buffer (pH 7.4). The filters were then washed 6 times with 7 mL ice cold 50 mM Tris buffer (pH 7.4). The filter plates were dried overnight and 35 μl of Microscint-O (Packard) was added. The plates were sealed and counted in the Packard Top Count (3 minutes per well).
The incubation was started by the addition of 100 μl (50 μg protein) membrane homogenate to a solution of 200 μl incubation buffer, 100 μl ^3H-spiperone (90 Ci/mmol, Amersham, diluted in borosilicate glass vial to 0.25 nM final conc.) and 100 μl (30 μM final conc.) of fresh dopamine (Research Biochemicals Inc., light protected and dissolved in incubation buffer) in 96-well polypropylene plates (1 mL per well). The plates were vortexed and incubated at room temperature for 90 minutes at which time the binding reaction was stopped by filtering. The filters were washed and counted using the same procedure as in the total binding assay described above to give the nonspecific binding value (NSB).
The incubation was started by the addition, in 96-well polypropylene plates (1 mL per well), of 100 μl (50 μg protein) membrane homogenate to a solution of 200 μl incubation buffer, 100 μl (0.25 nM final conc.) ^3H-spiperone (90 Ci/mmol, Amersham, diluted in borosilicate glass vial) and 100 μl of test compound that was prepared from 1 mM stock dissolved in DMSO and stored at −20° C. in polypropylene cryogenic storage vials until dilution in incubation buffer in 96-well polypropylene plates. The plates were vortexed and incubated at room temperature for 90 minutes at which time the binding reaction was stopped by filtering. The filters were washed and counted using the same procedure as in the total binding assay described above to give the displacement binding value (BD).
The test compounds were initially assayed at 1 and 0.1 μM and then at a range of concentrations chosen such that the middle dose would cause about 50% inhibition of ^3H-spiperone binding. Specific binding in the absence of test compound (B0) was the difference of total binding (BT) minus non-specific binding (NSB) and similarly specific binding (in the presence of test compound) (B) was the difference of displacement binding (BD) minus non-specific binding (NSB). […]

First: OC(COc1cccc(-c2noc3ccsc23)c1)CN1CCc2ccccc2C1 (racemic) [Compound 1, (±)-1-(3,4-dihydro-1H-isoquinolin-2-yl)-3-[3-(thieno[2,3-d]isoxazol-3-yl)phenoxy]-2-propanol hydrochloride]
Second: Cn1nc(-c2cccc(OC[C@H](O)CN3CCc4ccccc4C3)c2)c2sccc21 [Example 99]
The inhibition at 1 µM of the first is lower: 58% for the first, 95% for the second.

First: C[C@](O)(CNCc1cccc2ccccc12)COc1cccc(-c2noc3ccsc23)c1 [Example 57]
Second: C[C@H](NC[C@](C)(O)COc1cccc(-c2noc3ccsc23)c1)c1ccccc1 [Example 56]
The inhibition at 1 µM of the first is higher: 96% for the first, 93% for the second.

Compared with `O[C@@H](COc1cccc(-c2noc3ccsc23)c1)CN1CCN(Cc2ccc3c(c2)OCO3)CC1` [Example 35], `O[C@@H](COc1cccc(-c2noc3ccsc23)c1)CN1CCCCC1` [Example 98] is higher in inhibition at 1 µM: 57% for the first, 85% for the second.

Going from `O[C@H](CNCc1ccsc1)COc1ccc(-c2noc3ccsc23)cc1` [Example 41] to `O[C@H](CNCc1ccco1)COc1ccc(-c2noc3ccsc23)cc1` [Example 42], the inhibition at 1 µM falls from 62% to 44%.

Compared with `Cn1nc(-c2cccc(OC[C@H](O)CN3CCN(c4ncccn4)CC3)c2)c2sccc21` [Example 101], `Cn1nc(-c2cccc(OC[C@H](O)CN3CCN(c4ccccc4)CC3)c2)c2sccc21` [Example 100] is higher in inhibition at 1 µM: 89% for the first, 90% for the second.

First: O[C@@H](COc1cccc(-c2noc3ccsc23)c1)CN1CCC(O)(c2ccc(Cl)cc2)CC1 [Example 90]
Second: Cn1nc(-c2cccc(OC[C@H](O)CN3CCC(C(=O)c4ccc(F)cc4)CC3)c2)c2sccc21 [Example 102]
The inhibition at 1 µM of the first is lower: 59% for the first, 97% for the second.

First: C[C@@H](NC[C@](C)(O)COc1cccc(-c2noc3ccsc23)c1)c1ccccc1 [Example 55]
Second: O[C@H](CNCC1CCCCC1)COc1cccc(-c2noc3ccsc23)c1 [Example 92]
The inhibition at 1 µM of the first is lower: 72% for the first, 94% for the second.

Molecule `Cn1nc(-c2cccc(OC[C@H](O)CN3CCC(n4c(=O)[nH]c5ccccc54)CC3)c2)c2sccc21` [Example 103] has an inhibition at 1 µM of 91%.

same assay, conditions: 3H-spiperone 0.25 nM, membranes of HEK 298 cells with human D4.2; Cheng-Prusoff from IC50; read-out: D4 RBA Ki

`O[C@H](CNCc1ccco1)COc1cccc(-c2noc3ccsc23)c1` [Example 25] and `C[C@@](O)(CNCc1ccco1)COc1cccc(-c2noc3ccsc23)c1` [Example 17] are within 1.5-fold of each other in Ki: 0.057 µM for the first, 0.045 µM for the second.

Compared with `O[C@@H](COc1cccc(-c2noc3ccsc23)c1)CN1CCN(c2nsc3ccccc23)CC1` [Example 76], `COc1ccccc1N1CCN(C[C@@H](O)COc2cccc(-c3noc4ccsc34)c2)CC1` [Compound 8] is 3.5-fold lower in Ki: 0.006 µM for the first, 0.0017 µM for the second.

`CN(Cc1ccccc1)C[C@@H](O)COc1cccc(-c2noc3ccsc23)c1` [Compound 2] and `CN(Cc1ccccc1)C[C@](C)(O)COc1cccc(-c2noc3ccsc23)c1` [Example 66] are within 1.5-fold of each other in Ki: 0.106 µM for the first, 0.09 µM for the second.

Compared with `C[C@@](O)(CNCc1cccc2ccccc12)COc1cccc(-c2noc3ccsc23)c1` [Example 21], `O[C@H](CNCc1cccc2ccccc12)COc1cccc(-c2noc3ccsc23)c1` [Example 10] is 1.9-fold higher in Ki: 0.055 µM for the first, 0.103 µM for the second.

`O[C@H](CNC1Cc2ccccc2C1)COc1cccc(-c2noc3ccsc23)c1` [Compound 91 (base), (2R)-1-(indan-2-ylamino)-3-(3-thieno[2,3-d]isoxazol-3-yl-phenoxy)-propan-2-ol] and `O[C@H](CNC1CCc2ccccc21)COc1cccc(-c2noc3ccsc23)c1` (some centres unmarked) [Example 93] are within 1.5-fold of each other in Ki: 0.013 µM for the first, 0.016 µM for the second.

Going from `O[C@@H](COc1cccc(-c2noc3ccsc23)c1)CN1CCN(c2ccccc2C(F)(F)F)CC1` [Example 36] to `O[C@@H](COc1cccc(-c2noc3ccsc23)c1)CN1CCN(c2ccc(Cl)cc2)CC1` [Compound 7, (2R)-1-[4-(4-chlorophenyl)piperazin-1-yl]-3-(3-thieno[2,3-d]isoxazol-3-yl-phenoxy)propan-2-ol hydrochloride], the Ki falls from 0.084 µM to 0.0296 µM (2.8-fold). The second binds more tightly here.

Compared with `CO[C@H](CNCc1ccccc1)COc1cccc(-c2noc3ccsc23)c1` [Example 39], `O[C@H](CNC1Cc2ccccc2C1)COc1cccc(-c2noc3ccsc23)c1` [Compound 91 (HCl), (2R)-1-(indan-2-ylamino)-3-(3-thieno[2,3-d]isoxazol-3-yl-phenoxy)-propan-2-ol] is 1.5-fold lower in Ki: 0.026 µM for the first, 0.017 µM for the second.

Compared with `O[C@H](CNCc1cccs1)COc1ccc(-c2noc3ccsc23)cc1` [Example 43], `C[C@@](O)(CNCc1cccs1)COc1cccc(-c2noc3ccsc23)c1` [Compound 5 (freebase)] is 6.6-fold lower in Ki: 0.171 µM for the first, 0.026 µM for the second.

Compared with `COc1ccccc1N1CCN(C[C@@H](O)COc2ccc(-c3noc4ccsc34)cc2)CC1` [Example 45], `COc1ccccc1N1CCN(C[C@](C)(O)COc2cccc(-c3noc4ccsc34)c2)CC1` [Example 67] is 4.2-fold lower in Ki: 0.08 µM for the first, 0.019 µM for the second.

Going from `C[C@@](O)(COc1cccc(-c2noc3ccsc23)c1)CN1CCN(c2ccccc2C#N)CC1` [Example 68] to `C[C@@](O)(CNCc1cccs1)COc1cccc(-c2noc3ccsc23)c1` [Compound 5 (maleate), (2R)-2-methyl-1-(3-thieno[2,3-d]isoxazol-3-yl-phenoxy)-3-[thienophen-2-ylmethyl)-amino-propan-2-ol maleate], the Ki rises from 0.029 µM to 0.0592 µM (2-fold).

In the case of `O[C@@H](COc1cccc(-c2noc3ccsc23)c1)CN1C2CCC1CC(c1noc3ccccc13)C2` (some centres unmarked) [Example 75], the Ki is reported as 0.057 µM.

tested on: not given; assay: not given; details: not given

First: O[C@@H](COc1cccc(-c2noc3ccsc23)c1)CN1CCN(c2ccccc2C(F)(F)F)CC1 [Example 52, (2R)-1-(3-thieno[2,3-d]isoxazol-3-yl-phenoxy)-3-[4-(2-trifluoromethylphenyl)-piperazin-1-yl]propan-2-ol]
Second: O[C@@H](COc1cccc(-c2noc3ccsc23)c1)CN1CCN(c2ccccc2F)CC1 [Example 44, (2R)-1-[4-(2-fluorophenyl)piperazin-1-yl]-3-(3-thieno[2,3-d]isoxazol-3-yl-phenoxy)-propan-2-ol]
The melting point of the first is lower: 77 to 79 °C for the first, 96 to 99 °C for the second.

First: C[C@@](O)(CNCc1cccs1)COc1cccc(-c2noc3ccsc23)c1.O=C(O)/C=C\C(=O)O [Example 27]
Second: COc1ccc(N2CCN(C[C@@H](O)COc3cccc(-c4noc5ccsc45)c3)CC2)cc1 [Example 48, (2R)-1-[4-(4-methoxyphenyl)piperazin-1-yl]-3-(3-thieno[2,3-d]isoxazol-3-yl-phenoxy)-propan-2-ol]
The melting point of the first is higher: 120 to 121 °C for the first, 110 to 113 °C for the second.

Molecule `N#Cc1ccccc1N1CCN(C[C@@H](O)COc2cccc(-c3noc4ccsc34)c2)CC1` [Example 50, 2-{4-[(R)-2-hydroxy-3-(3-thieno[2,3-d]isoxazol-3-yl-phenoxy)-propyl]piperazin-1-yl}benzonitrile] has a melting point of 87 to 89 °C.
